According to patent publication US8642801B2 (BHI Limited Partnership, priority 2003, dated 2014):
Counter-ions that a name gives are not always drawn.

Experiments:
IAPP [1] = biological target: T1, IAPP (Homo sapiens, UniProt P10997); assay: MS (electrospray mass spectrometry) binding assay for IAPP; conditions: Table 3C; 20 μM Aβ peptide, 100 μM compound (so in the source)
T1 construct: which is a 37 amino acid peptide, derived from a larger precursor peptide, called pro-IAPP
T1 sequence (P10997 34-70 limits assumed): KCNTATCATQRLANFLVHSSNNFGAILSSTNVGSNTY
From the text: (§1) The ability of a therapeutic compound of the invention to inhibit an interaction between an amyloidogenic protein and a glycoprotein or proteoglycan constituent of a basement membrane can be assessed by an in vitro binding assay, such as that described in U.S. Pat. No. 5,164,295, the contents of which are hereby incorporated by reference. Alternatively, the ability of a compound to bind to an amyloidogenic protein or to inhibit the binding of a basement membrane constituent (e.g., HSPG) to an amyloidogenic protein (e.g., Aβ) can be measured using a mass spectrometry assay where soluble protein, e.g., Aβ, IAPP, β2M is incubated with the compound. A compound which binds to, e.g., Aβ, will induce a change in the mass spectrum of the protein. Exemplary protocols for a mass spectrometry assay employing Aβ and IAPP can be found in the Examples, the results of which are provided in Table 3. The protocol can readily be modified to adjust the sensitivity of the data, e.g., by adjusting the amount of protein and/or compound employed. Thus, e.g., binding might be detected for test compounds noted as not having detectable binding employing less sensitive test protocols.
(§2) The test compounds were synthesized and screened by mass spectrometry (“MS”) assays, except for selected compounds which were purchased from a commercial source. The MS assay gives data on the ability of compounds to bind to proteins, in this example, to β-amyloid and IAPP.
(§3) In the MS assay for Aβ40, samples were prepared as aqueous solutions (adding 20% ethanol if necessary to solubilize in water), 200 μM of a test compound and 20 μM of solubilized Aβ40, or 400 μM of a test compound and 40 μM of solubilized Aβ40. The pH value of each sample was adjusted to 7.4 (±0.2) by addition of 0.1% aqueous sodium hydroxide. The solutions were then analyzed by electrospray ionization mass spectrometry using a Waters ZQ 4000 mass spectrometer. Samples were introduced by direct infusion at a flow-rate of 25 μL/min within 2 hr. after sample preparation. The source temperature was kept at 70° C. and the cone voltage was 20 V for all the analysis. Data were processed using Masslynx 3.5 software. The MS assay gives data on the ability of compounds to bind to soluble Aβ, whereas the ThT, EM and CD assays give data on inhibition of fibrillogenesis. In Table 3, a blank box means that a value was not determined for that compound in that assay.
The key below describes the codes used in Table 3A to quantify the binding based on the intensity of the absorption.

Aβ1-40 = biological target: T2, Aβ1-40 (Homo sapiens, UniProt P05067); assay: MS (electrospray mass spectrometry) binding assay for Aβ40
T2 construct: most is normally secreted as a 40 (“Aβ1-40”) or 42 (“Aβ1-42”) amino acid peptide
From the text: as §1, §2
as §3, with “The” for “In the MS assay for Aβ40, samples were prepared as aqueous solutions (adding 20% ethanol if necessary to solubilize in water), 200 μM of a test compound and 20 μM of solubilized Aβ40, or 400 μM of a test compound and 40 μM of solubilized Aβ40. The”

IAPP [2] = biological target: T1, IAPP; assay: MS (electrospray mass spectrometry) binding assay for IAPP
[3] = Table 3C, 20 μM Aβ peptide, 100 μM compound
[4] = Table 3B, 30 μM Aβ peptide, 150 μM compound
[5] = Table 3D, 40 μM Aβ peptide, 400 μM compound (so in the source)
[6] = Table 3D, 40 μM Aβ peptide, 400 μM compound
[7] = Table 3B, 30 μM Aβ peptide, 150 μM compound (so in the source)

T2 sequence (P05067 672-711 limits assumed): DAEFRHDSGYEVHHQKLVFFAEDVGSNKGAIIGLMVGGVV

## CCCC(CO)NCCC(C)S(=O)(=O)O (racemic) [JL, 4-[(dl)-1-hydroxy-2-pentyl]amino-2-butane sulfonic acid]
IAPP [1]
  MS binding IAPP: ++ (40-74% binding=(++))
Aβ1-40; [3]
  MS binding Aβ1-40: ++ (40-74% binding=(++))

## CCCCCCNC(=O)NCCCS(=O)(=O)[O-].[Na+] [AI]
Aβ1-40; [4]
  MS binding Aβ1-40: +++ (60-100% binding=(+++))

## COc1ccc(NCCCS(=O)(=O)O)cc1 [HL]
IAPP [2]; [5]
  MS binding IAPP: + (20-39% binding=(+))
Aβ1-40; [6]
  MS binding Aβ1-40: ++ (40-74% binding=(++))

## Nc1ccc(NCCCS(=O)(=O)O)cc1 [HM]
IAPP [2]; [5]
  MS binding IAPP: − (<20%=(−))
Aβ1-40; [6]
  MS binding Aβ1-40: + (20-39% binding=(+))

## O=S(=O)(O)CCCNC1CN2CCC1CC2 (stereo not shown) [HQ]
Aβ1-40; [6]
  MS binding Aβ1-40: + (20-39% binding=(+))

## O=S(=O)(O)CCCn1ccnc1 [HR]
IAPP [2]; [5]
  MS binding IAPP: − (<20%=(−))
Aβ1-40; [6]
  MS binding Aβ1-40: ++ (40-74% binding=(++))

## O=S(=O)(O)CCCNc1ccc(F)cc1 [HT]
IAPP [2]; [5]
  MS binding IAPP: + (20-39% binding=(+))
Aβ1-40; [6]
  MS binding Aβ1-40: ++ (40-74% binding=(++))

## O=S(=O)(O)CCCNc1ccccc1O [HU]
IAPP [2]; [5]
  MS binding IAPP: + (20-39% binding=(+))
Aβ1-40; [6]
  MS binding Aβ1-40: +++ (75-100% binding=(+++))

## O=S(=O)(O)CCCn1cccc1 [HV]
IAPP [2]; [5]
  MS binding IAPP: + (20-39% binding=(+))
Aβ1-40; [6]
  MS binding Aβ1-40: ++ (40-74% binding=(++))

## CC(C)(C)OC(=O)NCCCS(=O)(=O)O [IA]
IAPP [2]; [5]
  MS binding IAPP: + (20-39% binding=(+))
Aβ1-40; [6]
  MS binding Aβ1-40: +++ (75-100% binding=(+++))

## O=S(=O)(O)CCCN1CCC=C(c2ccccc2)C1 [IG]
IAPP [2]; [5]
  MS binding IAPP: ++ (40-74% binding=(++))
Aβ1-40; [6]
  MS binding Aβ1-40: +++ (75-100% binding=(+++))

## COc1ccccc1CNCCCS(=O)(=O)O [IW]
IAPP [1]
  MS binding IAPP: +++ (75-100% binding=(+++))
Aβ1-40; [3]
  MS binding Aβ1-40: ++ (40-74% binding=(++))

## O=S(=O)(O)CCCNCc1ccccc1OC(F)(F)F [IX]
IAPP [1]
  MS binding IAPP: +++ (75-100% binding=(+++))
Aβ1-40; [3]
  MS binding Aβ1-40: ++ (40-74% binding=(++))

## C[C@@H](NCCCS(=O)(=O)O)c1ccccc1 [IY]
IAPP [2]; [7]
  MS binding IAPP: +++ (60-100% binding=(+++))
Aβ1-40; [4]
  MS binding Aβ1-40: ++ (40-59% binding=(++))

## C[C@H]([C@@H](O)c1ccccc1)N(C)CCCS(=O)(=O)O [IZ]
IAPP [1]
  MS binding IAPP: +++ (75-100% binding=(+++))
Aβ1-40; [3]
  MS binding Aβ1-40: − (<20%=(−))

## C[C@H](NCCCS(=O)(=O)O)c1ccccc1 [JA]
IAPP [1]
  MS binding IAPP: ++ (40-74% binding=(++))
Aβ1-40; [3]
  MS binding Aβ1-40: + (20-39% binding=(+))

## COc1ccc(OC)c(CNCCCS(=O)(=O)O)c1 [JB]
IAPP [1]
  MS binding IAPP: + (20-39% binding=(+))
Aβ1-40; [3]
  MS binding Aβ1-40: + (20-39% binding=(+))

## CCOc1ccccc1CNCCCS(=O)(=O)O [JD]
IAPP [1]
  MS binding IAPP: ++ (40-74% binding=(++))
Aβ1-40; [3]
  MS binding Aβ1-40: + (20-39% binding=(+))

## C[C@@H]([C@H](O)c1ccccc1)N(C)CCCS(=O)(=O)O [JE]
IAPP [1]
  MS binding IAPP: ++ (40-74% binding=(++))
Aβ1-40; [3]
  MS binding Aβ1-40: − (<20%=(−))

## CC(CCNC1CCCc2ccccc21)S(=O)(=O)O (stereo not shown) [JF, 4-(1,2,3,4-tetrahydro-1-naphthylamino)-2-butanesulfonic acid]
IAPP [1]
  MS binding IAPP: ++ (40-74% binding=(++))
Aβ1-40; [3]
  MS binding Aβ1-40: + (20-39% binding=(+))

## CCCCCCCCNCCC(C)S(=O)(=O)O (stereo not shown) [JG, 4-(octylamino)-2-butanesulfonic acid]
IAPP [1]
  MS binding IAPP: +++ (75-100% binding=(+++))

## CC(CCNC12CC3CC(CC(C3)C1)C2)S(=O)(=O)O (stereo not shown) [JH, 4-(adamantyl)amino-2-butanesulfonic acid]
IAPP [2]; [7]
  MS binding IAPP: +++ (60-100% binding=(+++))
Aβ1-40; [4]
  MS binding Aβ1-40: ++ (40-59% binding=(++))

## CC(CCNC1C2CC3CC(C2)CC1C3)S(=O)(=O)O (stereo not shown) [JI, 4-(2-adamantyl)amino-2-butanesulfonic acid]
IAPP [2]; [7]
  MS binding IAPP: +++ (60-100% binding=(+++))
Aβ1-40; [4]
  MS binding Aβ1-40: +++ (60-100% binding=(+++))

## CC(CCNC1CC2CCC1C2)S(=O)(=O)O (stereo not shown) [JJ, 4-(bicyclo[2.2.1]hept-2-ylamino)-2-butanesulfonic acid]
IAPP [1]
  MS binding IAPP: +++ (75-100% binding=(+++))
Aβ1-40; [3]
  MS binding Aβ1-40: ++ (40-74% binding=(++))

## O=S(=O)([O-])CCC[N+]12CCC(CC1)CC2 [JM]
IAPP [1]
  MS binding IAPP: + (20-39% binding=(+))
Aβ1-40; [3]
  MS binding Aβ1-40: − (<20%=(−))

## CCCCCCCCCNCCC(C)S(=O)(=O)[O-].[Na+] (stereo not shown) [JN, 4-(nonylamino)-2-butanesulfonic acid]
IAPP [1]
  MS binding IAPP: + (20-39% binding=(+))
Aβ1-40; [3]
  MS binding Aβ1-40: ++ (40-74% binding=(++))

## CC(CCN(C)C)S(=O)(=O)[O-].[Na+] (stereo not shown) [JO, 4-(dimethylamino)-2-butanesulfonic acid]
IAPP [1]
  MS binding IAPP: ++ (40-74% binding=(++))
Aβ1-40; [3]
  MS binding Aβ1-40: + (20-39% binding=(+))

## CC(CCN)S(=O)(=O)O (stereo not shown) [JR, 4-amino-2-butanesulfonic acid]
IAPP [2]; [7]
  MS binding IAPP: +++ (60-100% binding=(+++))
Aβ1-40; [4]
  MS binding Aβ1-40: ++ (40-59% binding=(++))

## CC(CCN1CCCCC1)S(=O)(=O)O (stereo not shown) [JS, 4-piperidin-1-yl-2-butanesulfonic acid]
IAPP [1]
  MS binding IAPP: + (20-39% binding=(+))

## CN(C)CC(O)CS(=O)(=O)[O-].[Na+] (stereo not shown) [JT, 3-(dimethylamino)-2-hydroxy-1-propane sulfonic acid, sodium salt]
IAPP [1]
  MS binding IAPP: + (20-39% binding=(+))

## CCNCC(O)CS(=O)(=O)O (stereo not shown) [JU, 3-(ethylamino)-2-hydroxy-1-propanesulfonic acid]
IAPP [1]
  MS binding IAPP: ++ (40-74% binding=(++))

## CCCCCCCCNCC(O)CS(=O)(=O)O (stereo not shown) [JW]
IAPP [1]
  MS binding IAPP: ++ (40-74% binding=(++))

## O=S(=O)([O-])CC(O)C[N+]12CCC(CC1)CC2 (stereo not shown) [JX, 1-(3-sulfo-2-hydroxypropyl) quinuclidinium, inner salt]
IAPP [1]
  MS binding IAPP: ++ (40-74% binding=(++))

## O=S(=O)([O-])CC(O)CNCc1ccccc1.[Na+] (stereo not shown) [JY]
IAPP [1]
  MS binding IAPP: +++ (75-100% binding=(+++))

## O=S(=O)(O)CC(O)CNC1CCCc2ccccc21 (stereo not shown) [JZ, 2-hydroxy-3-(1,2,3,4-tetrahydronaphthalen-1-ylamino)propane-1-sulfonic acid]
IAPP [1]
  MS binding IAPP: +++ (75-100% binding=(+++))

## O=S(=O)(O)CC(O)CN1CCCCC1 (stereo not shown) [KA, 2-hydroxy-3-piperidin-1-ylpropane-1-sulfonic acid]
IAPP [1]
  MS binding IAPP: ++ (40-74% binding=(++))

## O=S(=O)(O)CC(O)CNC1CC2CCC1C2 (stereo not shown) [KI, 3-(bicyclo[2.2.1]hept-2-ylamino)-2-hydroxy-1-propanesulfonic acid]
IAPP [1]
  MS binding IAPP: + (20-39% binding=(+))

## CC(C)CCNCC(O)CS(=O)(=O)O (stereo not shown) [KK, 2-hydroxy-3-[(3-methylbutyl)amino]-1-propane sulfonic acid]
IAPP [1]
  MS binding IAPP: +++ (75-100% binding=(+++))

## CN(C)CCS(=O)(=O)O [KQ]
IAPP [1]
  MS binding IAPP: + (20-39% binding=(+))

## CC(C)(C)NCCCCS(=O)(=O)O [LD, 4-(tert-butylamino)-1-butanesulfonic acid]
IAPP [1]
  MS binding IAPP: ++ (40-74% binding=(++))

## CCNCCCCS(=O)(=O)O [LE, 4-(ethylamino)-1-butanesulfonic acid]
IAPP [1]
  MS binding IAPP: ++ (40-74% binding=(++))

## O=S(=O)([O-])CCCC[N+]12CCC(CC1)CC2 [LF]
IAPP [1]
  MS binding IAPP: + (20-39% binding=(+))

## O=S(=O)(O)CCCCNC1CCCc2ccccc21 (stereo not shown) [LG]
IAPP [1]
  MS binding IAPP: ++ (40-74% binding=(++))

## CN(C)CCCCS(=O)(=O)O [LH, 4-Dimethylamino-1-butanesulfonic acid]
IAPP [1]
  MS binding IAPP: + (20-39% binding=(+))

## O=S(=O)(O)CCCCNC12CC3CC(CC(C3)C1)C2 [LI, 4-(adamantyl)amino-1-butanesulfonic acid]
IAPP [1]
  MS binding IAPP: +++ (75-100% binding=(+++))

## CCCCCCCCNCCCCS(=O)(=O)O [LJ, 4-(octylamino)-1-butanesulfonic acid]
IAPP [1]
  MS binding IAPP: +++ (75-100% binding=(+++))

## COc1ccc(CNCCCCS(=O)(=O)O)cc1OC [LM]
IAPP [1]
  MS binding IAPP: +++ (75-100% binding=(+++))

## O=S(=O)(O)CCCCCNC1CC2CCC1C2 (stereo not shown) [LQ]
IAPP [1]
  MS binding IAPP: +++ (75-100% binding=(+++))
